Measured values: patent US12187722B2, “Small molecule inhibitors of TEAD transcription factors” (The General Hospital Corporation, priority 2019, dated 2025)
Where “and” joins values, the source holds several entries; their conditions need not be identical. Equal entries are not always repeated. Where two headings read alike, the source gives them in different places.

How the values were obtained:
TEAD2 [1] = target: T1, TEAD2 (Homo sapiens (Human), UniProt Q15562); test: In vitro palmitoylation (TEAD2 autopalmitoylation, streptavidin blot); format: biochemical; details: compound at 10 μM
T1 sequence (Q15562 whole entry): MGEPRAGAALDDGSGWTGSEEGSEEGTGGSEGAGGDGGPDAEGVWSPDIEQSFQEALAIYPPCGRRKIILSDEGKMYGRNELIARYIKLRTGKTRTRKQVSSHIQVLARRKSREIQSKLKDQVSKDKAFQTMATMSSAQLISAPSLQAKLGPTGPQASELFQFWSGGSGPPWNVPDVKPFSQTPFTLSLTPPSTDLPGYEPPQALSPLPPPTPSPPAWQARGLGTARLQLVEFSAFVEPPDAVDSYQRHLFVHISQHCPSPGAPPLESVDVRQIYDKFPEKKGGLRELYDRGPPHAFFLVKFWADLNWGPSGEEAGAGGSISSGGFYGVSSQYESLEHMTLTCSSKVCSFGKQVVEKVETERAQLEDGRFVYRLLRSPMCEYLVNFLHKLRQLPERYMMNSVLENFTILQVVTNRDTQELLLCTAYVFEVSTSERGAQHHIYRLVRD
Procedure, shortened: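 Recombinant GST- or His6-TEAD2 (500 ng) preincubated 15 min with compound, then 30 min with 1 μM alkyne palmitoyl-CoA; click-labelled with biotin-azide (1 h, RT). Streptavidin-HRP blot band intensity quantified after SDS-PAGE; inhibition of autopalmitoylation relative to DMSO control.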

TEAD2 [2] = target: T1, TEAD2; test: CMP assay (CPM fluorescence detection of free CoA); format: biochemical
Procedure: 7-Diethylamino-3-(4′-Maleimidylphenyl)-4-Methylcoumarin (CPM), which reacts with thiol of CoA liberated in the enzymatic reaction, and gives fluorescent signal (excitation ˜350-380, emission-460-480). The assay detects the product (free CoA) which is produced from palmitoyl-CoA as a method to detect the enzymatic activity. Test compounds that inhibit TEAD activity are therefore able to block the CMP fluorescent signal.
TEAD2/4 protein (10 μL of a 50 ng/μL solution) and a solution the test compound (0.5 μL, variable concentration) were pre-incubated for 30 min at r.t. A mixture prepared from MES pH 6.4 buffer (6.5 μL of a 50 mM solution), EDTA (1 μL of a 20 mM solution), palmitoyl-CoA (1 μL of a 20 μM solution), and 7-diethylamino-3-(4′-maleimidylphenyl)-4-methylcoumarin (1 μL of a 10 μM solution) was added and the resulting mixture was mixed well using a pipette. The solution was then incubated at r.t. for 30-120 min. in the dark, and fluorescence was detected at […] every 30 min. until the fluorescence signal is saturated. An IC50 for the ability of the compound to inhibit fluorescence is calculated from the results.

[3] = Table 2, read-out: IC50 μM (CMP assay)
[4] = Table 3, unit inferred, read-out: TEAD2 palmitoylation IC50

Structure (SMILES)	inhibition at 10 µM (TEAD2 [1]; Table 2) [%]	inhibition at 10 µM (TEAD2 [1]; Table 3) [%]	IC50 (TEAD2 [2]; [4]) [µM]	also measured
C=CC(=O)c1ccccc1Nc1cccc(Nc2ccc(C34CC5CC(CC(C5)C3)C4)cc2)c1	–	–	–	inhibition at 10 µM (TEAD2 [1]): 70%; IC50 (TEAD2 [2]; CMP assay, read-out: CMP IC50): 5.09 µM
O=C(O)c1ccccc1Nc1ccc(Nc2ccc(C34CC5CC(CC(C5)C3)C4)cc2Cl)cc1 [Compound 31]	99	–	–	% of inhibition of TEAD2 palmitoylation at 10 μM (TEAD2 [1]; Table 2): 84% and 82%; IC50 (TEAD2 [2]; [3]): 0.377 µM
COc1ccc(Nc2ccc(N(C)c3ccc(C4CCCCC4)cc3)cc2F)c(C(=O)O)c1 [CP-549]	–	85	2.4	–
COc1ccc(Nc2ccc(N(C)c3ccc(C4CCCCC4)cc3)nc2)c(C(=O)O)c1 [CP-598]	–	74	0.05	–
COc1ccc(Nc2ccc(N(C)c3ccc(OCC(F)(F)F)cc3)cc2C)c(C(=O)O)c1 [CP-565]	–	100	0.51	–
CN(c1ccc(Nc2ccc(C34CC5CC(CC(C5)C3)C4)cc2Cl)cc1)c1ncccc1C(=O)O [Compound 125]	96	–	–	IC50 (TEAD2 [2]; [3]): 0.771 µM
COc1ccc(Nc2ccc(N(C)c3ccc(C4CC5CCC4C5)cc3)cc2F)c(C(=O)O)c1 (centres unmarked) [CP-585]	–	86	0.32	–
O=C(O)c1ccccc1Nc1ccc(Oc2ccc(C3CCCCC3)cc2Cl)nc1 [CP-566]	–	99	0.38	–
COc1ccc(Nc2ccc(N(C)c3ccc(C(F)(F)F)cc3)cc2)c(C(=O)O)c1 [CP-521]	–	93	1.45	–
COc1ccc(Nc2ccc(N(C)c3ccc(C4CCC(C)CC4)cc3)cc2)c(C(=O)O)c1 (centres unmarked) [CP-583]	–	–	0.23	% of inhibition of TEAD2 palmitoylation at 10 μM (TEAD2 [1]; Table 3): 96%
COc1ccc(Nc2ccc(N(C)c3ccc(OC(F)(F)F)cc3)cc2)c(C(=O)O)c1 [CP-548]	–	86	0.45	–
COc1ccc(Nc2ccc(N(C)c3ccc(C4CC5CCC4C5)cc3)cc2)c(C(=O)O)c1 (centres unmarked) [CP-538]	–	85	0.68	–
CN(c1ccc(N(C)c2ccccc2C(=O)O)cc1)c1ccc(C23CC4CC(C)(CC(C)(C4)C2)C3)cc1 [Compound 178]	100	–	–	IC50 (TEAD2 [2]; [3]): 0.227 µM
COc1ccc(Nc2ccc(N(C)c3ccc(C)cc3)cc2)c(C(=O)O)c1 [CP-554]	–	96	0.01	–
COc1ccc(Nc2ccc(N(C)c3ccc(C4CCC(C)CC4)cc3)cc2)c(C(=O)O)c1 (centres unmarked) [CP-584]	–	–	0.21	% of inhibition of TEAD2 palmitoylation at 10 μM (TEAD2 [1]; Table 3): 85%
COc1ccc(Nc2ccc(N(C)c3ccc(C4CCCCC4)cc3)cc2C2CC2)c(C(=O)O)c1 [CP-626]	–	87	0.382	–
COc1ccc(Nc2ccc(N(C)c3ccc(N4CCCCC4)cc3)cc2)c(C(=O)O)c1 [CP-555]	–	100	0.01	–
CN(c1ccc(Oc2ccc(C34CC5CC(CC(C5)C3)C4)cc2Cl)cc1)c1ccccc1C(=O)O [Compound 168]	97	–	–	IC50 (TEAD2 [2]; [3]): 0.173 µM
CN(c1ccc(N(C)c2ncccc2C(=O)O)cc1)c1ccc(C23CC4CC(CC(C4)C2)C3)cc1 [Compound 139]	95	–	–	IC50 (TEAD2 [2]; [3]): 0.312 µM
COc1ccc(Nc2ccc(N(C)c3ccc(C4CCCCC4)cc3)cc2C)c(C(=O)O)c1 [CP-560]	–	90	0.011	–
Cc1cc(N(C)c2ccc(C3CCCCC3)cc2)ccc1Nc1ccc(OC2CC2)cc1C(=O)O [CP-619]	–	96	0.75	–

Structure (SMILES)	inhibition at 10 µM (TEAD2 [1]; Table 2) [%]	inhibition at 10 µM (TEAD2 [1]; Table 3) [%]	IC50 (TEAD2 [2]; [4]) [µM]	also measured
CC12CC3CC(C)(C1)CC(c1ccc(Oc4ccc(Nc5ncccc5C(=O)O)cc4)c(Cl)c1)(C3)C2 [Compound 254]	100	–	–	IC50 (TEAD2 [2]; [3]): 0.297 µM
COc1ccc(Nc2ccc(N(C)c3ccc(OC(F)(F)F)cc3)cc2F)c(C(=O)O)c1 [CP-589]	–	97	1.57	–
COc1ccc(Nc2ccc(N(C)c3ccc(C4CCC(C)(C)CC4)cc3)cc2)c(C(=O)O)c1 [CP-593]	–	78	0.03	–
CN(c1ccc(N(C)c2ccccc2C(=O)O)cc1)c1ccc(C23CC4CC(CC(C4)C2)C3)cc1 [Compound 100]	100	–	–	IC50 (TEAD2 [2]; [3]): 0.207 µM
COc1ccc(Nc2ccc(N(C)c3ccc(C45CC6CC(CC(C6)C4)C5)cc3)cc2C)c(C(=O)O)c1 [CP-551]	–	91	0.002	–
O=C(O)c1cccnc1Nc1cnn(Cc2ccc(C34CC5CC(CC(C5)C3)C4)cc2Cl)c1 [Compound 112]	100	–	–	IC50 (TEAD2 [2]; [3]): 0.268 µM
COc1ccc(Nc2ccc(N(C)c3ccc(OC(F)(F)F)cc3)cc2C)c(C(=O)O)c1 [CP-590]	–	96	0.22	–
CC12CC3CC(C)(C1)CC(c1ccc(Oc4ccc(Nc5ccccc5C(=O)O)cc4)c(Cl)c1)(C3)C2 [Compound 253]	100	–	–	IC50 (TEAD2 [2]; [3]): 0.099 µM
COc1ccc(Nc2ccc(N(C)c3ccc(S(F)(F)(F)(F)F)cc3)cc2)c(C(=O)O)c1 [CP-528]	–	76	0.38	–
Cc1cc(N(C)c2ccc(C3CCCCC3)cc2)ccc1Nc1ccc(CN)cc1C(=O)O [CP-635]	–	27	–	–
Cc1cc(N(C)c2ccc(C3CCCCC3)cc2)ccc1Nc1ccc(N2CC3(COC3)C2)cc1C(=O)O [CP-627]	–	51	–	–
O=C(O)c1cccnc1Nc1ncn(Cc2ccc(C34CC5CC(CC(C5)C3)C4)cc2Cl)n1 [Compound 129]	41	–	–	–
O=C(Nc1ccc(C23CC4CC(CC(C4)C2)C3)cc1)c1ccc(Oc2cccc(C(=O)O)n2)cc1 [Compound 212]	77	–	–	–
O=C(Nc1ccc(Nc2cccc(C(=O)O)n2)cc1)Nc1ccc(C23CC4CC(CC(C4)C2)C3)cc1 [Compound 182]	54	–	–	–
NC(Cc1ccc(Nc2ccc(C34CC5CC(CC(C5)C3)C4)cc2Cl)cc1)C(=O)O (centres unmarked) [Compound 95]	97	–	–	–
O=C(O)Cn1ccc2cc(Nc3ccc(C45CC6CC(CC(C6)C4)C5)cc3Cl)ccc21 [Compound 130]	100	–	–	–
COc1ccc(Nc2cnc(Oc3ccc(C4CCCCC4)cc3Cl)nc2)c(C(=O)O)c1 [CP-616]	–	73	–	–
COc1cccc(Nc2cccc(C(=O)Nc3ccc(C45CC6CC(CC(C6)C4)C5)cc3)c2)c1C(=O)O [Compound 248]	32	–	–	–
CCCCN(c1ccccc1)c1ccc(Nc2ccc(Nc3ccccc3C(=O)O)cc2)c(Cl)c1 [Compound 258]	0	–	–	–
CNC(=O)c1cc(OC)ccc1Nc1ccc(N(C)c2ccc(C(F)(F)F)cc2)cc1 [CP-606]	–	63	–	–
O=C(O)c1ccccc1Nc1ccc(Nc2ccc(-c3ccccc3C(F)(F)F)cc2Cl)cc1 [Compound 53]	5	–	–	–

Structure (SMILES)	inhibition at 10 µM (TEAD2 [1]; Table 2) [%]	inhibition at 10 µM (TEAD2 [1]; Table 3) [%]	IC50 (TEAD2 [2]; [4]) [µM]	also measured
O=C(O)c1cccnc1Nc1cccc(C23CC4CC(CC(C4)C2)C3)c1 [Compound 96]	96	–	–	–
CCCCN(c1ccccc1)c1ccc(Nc2ccc(Nc3ncccc3C(=O)O)cc2)cc1 [Compound 255]	50	–	–	–
O=C(O)c1ccnc(Nc2ccc(Nc3ccc(C45CC6CC(CC(C6)C4)C5)cc3Cl)cc2)c1 [Compound 89]	90	–	–	–
O=C(O)c1cccc(Nc2cc(Nc3ccc(C4CCCCC4)cc3)cc(C(F)(F)F)c2)c1 [CP-662]	–	88	–	–
Cc1cc(Oc2ccc(C34CC5CC(C)(CC(C)(C5)C3)C4)cc2Cl)ccc1Nc1ccccc1C(=O)O [CP-561]	–	90	–	–
O=C(O)c1nccnc1Nc1ccc(Nc2ccc(C34CC5CC(CC(C5)C3)C4)cc2Cl)cc1 [Compound 86]	54	–	–	–
CCCCN(c1ccccc1)c1ccc(NC(=O)c2ccc(Nc3ccccc3C(=O)O)cc2)cc1 [Compound 195]	0	–	–	–
Cc1cc(N(C)c2ccc(C3CCCCC3)cc2)ccc1Nc1ccc(C(F)(F)F)cc1C(=O)O [CP-579]	–	61	–	–
O=C(O)c1cccnc1Nc1ccc2c(c1)N(Cc1ccc(C34CC5CC(CC(C5)C3)C4)cc1Cl)CC2 [Compound 131]	37	–	–	–
O=C(O)c1ccccc1Nc1ccc(Nc2ccc(C34CC5CC(CC(C5)C3)C4)cc2)cc1C(F)(F)F [Compound 80]	40	–	–	–
COc1cc(Nc2ccc(Nc3ccc(C45CC6CC(CC(C6)C4)C5)cc3)cc2)c(C(=O)O)c(OC)c1 [Compound 249]	1	–	–	–
COc1ccc(Nc2ccc(N(C)c3ccc(OCC(F)(F)F)cc3)cc2F)c(C(=O)O)c1 [CP-568]	–	46	–	–
COc1ccc(Nc2ccc(Oc3ccc(S(F)(F)(F)(F)F)cc3Cl)nc2)c(C(=O)O)c1 [CP-615]	–	82	–	–
O=C(O)c1cccnc1Nc1ccc(Nc2cccc(C34CC5CC(CC(C5)C3)C4)c2)cc1 [Compound 104]	80	–	–	–
CN(c1ccc(Nc2ncccc2C(=O)O)cc1)c1ccc(C(F)(F)F)cc1 [CP-541]	–	80	–	–
O=C(Nc1ccc(C23CC4CC(CC(C4)C2)C3)cc1)Nc1ccc2nc[nH]c2c1	–	–	–	inhibition at 10 µM (TEAD2 [1]): 20%
COc1ccc(Oc2ccc(N(C)c3ccc(C(F)(F)F)cc3)cc2)c(C(=O)O)c1 [CP-587]	–	36	–	–
NC1(C(=O)Nc2ccc(Nc3ccc(C45CC6CC(CC(C6)C4)C5)cc3Cl)cc2)CC1 [compound 280]	17	–	–	–
Cc1cc(Nc2ccc(C34CC5CC(CC(C5)C3)C4)cc2)cc(Nc2ncccc2C(=O)O)c1 [Compound 32]	60	–	–	–
